Experimental findings from ChEMBL document CHEMBL3988442, “University of Dundee, Small-Polar-MMV Screening Library” (2021) are described below.

A short description of assay [1]: microbe, parasite or virus in culture. Particulars: Mycobacterium tuberculosis, 96 h, read-out: pIC50 (converted).
A short description of assay [2]: microbe, parasite or virus in culture. Particulars: Mycobacterium tuberculosis, 72 h, read-out: pIC50 (converted).

As to `O=C(c1cc2c([nH]c1=O)CCC2)N1CCCC1c1ccccc1` (stereo not given), the IC50 in assay [1] and in assay [2] was over 50.1 µM each time.

As to `NCCc1ccc2cc[nH]c2c1`, the IC50 in assay [1] was over 501 µM; in assay [2], 212 µM.

With `O=C(c1cccc(-n2cccn2)n1)N1CCCC1`, the IC50 in assay [1] was 163 µM; in assay [2], 59.6 µM.

`CCCN(C)S(=O)(=O)NC(C)c1ccc(OC)c(F)c1` (stereo not given): the results for the IC50 in assay [1] and in assay [2] were 163 µM and 153 µM, respectively.

For the compound `O=C(NCc1ccco1)N1CCN(Cc2ccc3c(c2)CCO3)CC1`, the IC50 in assay [1] is 5.53 µM; in assay [2], 11.4 µM.

For `COc1ccc(CNC(=O)CNC2CCCSC2)cc1` (stereo not given), the results for the IC50 in assay [1] and in assay [2] were 37.4 µM and over 501 µM, respectively.

For the compound `Cc1cc(C(=O)NCC(CO)c2ccccc2)ns1` (stereo not given), the IC50 was 130 µM in assay [1] and 103 µM in assay [2].

For `CC(C)Oc1cccc(CN(C)C(=O)Cc2ccon2)c1`, the IC50 in assay [1] and in assay [2] was over 50.1 µM in each case.

Turning to `Cc1ccccc1N1C(=O)C=CC1=O`, the IC50 was 254 µM in assay [1] and 157 µM in assay [2].

Take `NCCCC(=O)N(Cc1ccccc1F)C1CCC1`: the IC50 in assay [1] is over 501 µM; in assay [2], 231 µM.

Take `CNC(=O)COC(=O)Cc1ccc(Br)cc1`: the IC50 in assay [1] and in assay [2] was over 501 µM in each case.

On to `COc1ccccc1C(N)c1ccccn1` (stereo not given), for which the IC50 was 453 µM in assay [1] and 233 µM in assay [2].

On to `FC(F)(F)c1ccnc(N2CCC(c3nccn3CC3CC3)CC2)n1`, for which the IC50 in assay [1] was 16.3 µM; in assay [2], 44.6 µM.

Regarding `CCOc1ccnc(N[C@@H](Cc2ccccc2)C(N)=O)n1`, the IC50 in assay [1] and in assay [2] was over 50.1 µM in each case.

Consider `NC1CCN(c2ccc(C(F)(F)F)cn2)CC1`, for which the IC50 in assay [1] was 139 µM; in assay [2], 91.6 µM.

In the case of `CCCNC(=O)c1cc(Br)c[nH]1`, the IC50 in assay [1] and in assay [2] was over 501 µM each time.

Turning to `CC(C)c1ccc2c(c1)C(N)C(=O)N2` (stereo not given), the IC50 in assay [1] and in assay [2] was over 501 µM each time.

Take `FC(F)Oc1cccc(N2CCNCC2)c1`: the IC50 is 347 µM in assay [1] and 147 µM in assay [2].

Regarding `CSc1cc(NC(=O)NCCc2ccccn2)ccn1`, the IC50 was 438 µM in assay [1] and 411 µM in assay [2].

`CC(C)CN1C(=O)C(N)c2ccccc21` (stereo not given): the IC50 in assay [1] and in assay [2] was over 501 µM in each case.

Consider `NC(=O)CSc1nnc(-c2cc(Br)ccc2O)[nH]1`, for which the IC50 in assay [1] is 247 µM; in assay [2] it was 210 µM.

Turning to `Cc1ccc(CCNC(=O)CSCCN2CCCC2)o1`, the IC50 in assay [1] is over 501 µM; in assay [2], 306 µM.

As to `CCNC(=O)NC(=O)CN(C)Cc1ccccc1`, the IC50 was 134 µM in assay [1] and 171 µM in assay [2].

Take `Cc1nc2c(c(NCc3nc4ccccc4s3)n1)CCNCC2`: the IC50 was 45.8 µM in assay [1] and 23.7 µM in assay [2].

Take `O=C(c1cnsn1)N1CCN(c2ccccn2)CC1`: the results for the IC50 in assay [1] and in assay [2] were 51.4 µM and 84.6 µM, respectively.

As to `NCc1ccc(NC(=O)c2ccccc2O)cc1`, the IC50 is over 501 µM in assay [1] and 159 µM in assay [2].

As for `COCC(C)Nc1cccc(F)c1C#N` (stereo not given), the IC50 in assay [1] and in assay [2] was over 501 µM throughout.

For `NC(=O)c1ccsc1NC(=O)CCN1CCCCC1`, the IC50 in assay [1] is over 501 µM; in assay [2], 495 µM.

Regarding `CC(C)c1cc(C(=O)N[C@@H]2CCOC[C@H]2O)cs1`, the IC50 in assay [1] and in assay [2] was over 501 µM in each case.

In the case of `CN(C)CCOc1ccccc1CN`, the IC50 in assay [1] and in assay [2] was over 501 µM in each case.

Take `CN(C1(C#N)CCC1)S(=O)(=O)c1ccccc1`: the IC50 in assay [1] and in assay [2] was over 501 µM each time.

Take `Cc1nccn1C1CCCN(C(=O)c2ccc(N3CCCC3)nn2)C1` (stereo not given): the IC50 in assay [1] and in assay [2] was over 50.1 µM each time.

Take `CC(C)CC1CCN(C(=O)CCn2cnnn2)C1` (stereo not given): the IC50 was 77.2 µM in assay [1] and 28.3 µM in assay [2].

Take `Cn1ncc2c(N3CCCN4CCC[C@H]4C3)nc(C(C)(C)C)nc21`: the IC50 in assay [1] is 47 µM; in assay [2] it was over 50.1 µM.

As for `Clc1ccc(N2CCN(Cc3ncc[nH]3)CC2)nc1`, the results for the IC50 in assay [1] and in assay [2] were over 501 µM and 311 µM, respectively.

Consider `CC(C)c1cc(C(=O)NCCCN(C)C)nc(N2CCCC2)n1`, for which the IC50 in assay [1] is 31.2 µM; in assay [2], 30 µM.

For the compound `COc1ccc(CCN2CCCNCC2)cc1`, the IC50 in assay [1] was 159 µM; in assay [2], 73.3 µM.

Regarding `CC1=C[C@@H](CN2CCCC2)[C@H](C(C)C)C[C@H]1Cc1nnc(C)o1`, the IC50 in assay [1] and in assay [2] was over 50.1 µM each time.

`COc1ccc2[nH]c(C(=O)NCC3CCCO3)cc2c1` (stereo not given): the IC50 in assay [1] was 220 µM; in assay [2], 156 µM.

Consider `O=C(NC[C@H]1CC[C@H](c2ccnc3ncnn32)CC1)C1CC1`, for which the IC50 in assay [1] and in assay [2] was over 50.1 µM each time.

Consider `Cc1cc2c(cc1CNC(Cc1cccs1)c1nccs1)OCO2` (stereo not given), for which the values for the IC50 in assay [1] and in assay [2] were over 50.1 µM and 24.4 µM, respectively.

For the compound `COc1cc(Cl)cc(CN2CCCC(N3CCCC3)C2)c1OC` (stereo not given), the figures for the IC50 in assay [1] and in assay [2] were 28.3 µM and 23.3 µM, respectively.

For the compound `COc1ccc(NC(=O)NC(C)(C)C(C)(C)O)cc1`, the results for the IC50 in assay [1] and in assay [2] were over 501 µM and 186 µM, respectively.

For `Cc1cc(NCCC(=O)NC(C)C)nc(-c2ccncc2)n1`, the IC50 in assay [1] and in assay [2] was over 50.1 µM throughout.

For the compound `CC(N)C(=O)N1CCC(Oc2ccccc2Cl)CC1` (stereo not given), the IC50 in assay [1] is 227 µM; in assay [2], 288 µM.

Regarding `O=C(COc1ncccn1)Nc1ccc(F)cc1F`, the IC50 in assay [1] and in assay [2] was over 501 µM throughout.

For the compound `O=C(NCCn1cccc1)c1ccc(Cl)cn1`, the IC50 in assay [1] was 52.9 µM; in assay [2] it was 57.9 µM.

Regarding `CC(C)(C)n1cc(NC(=O)C2CN(Cc3ccccc3)CCO2)cn1` (stereo not given), the IC50 in assay [1] and in assay [2] was over 50.1 µM throughout.

For the compound `CNCCCNC(=O)CCc1ccc(F)cc1`, the IC50 in assay [1] and in assay [2] was over 501 µM throughout.

Consider `O=C(CCC(=O)N1CCC(Oc2ncccc2Br)CC1)c1ccccc1`, for which the IC50 in assay [1] is 45.4 µM; in assay [2] it was 34.6 µM.

For the compound `Cc1nn(CC(=O)N(C)C)c(=O)c2ccccc12`, the IC50 in assay [1] and in assay [2] was over 501 µM each time.

For `CN(Cc1ccc(Br)s1)CC(O)COCCO` (stereo not given), the IC50 was 165 µM in assay [1] and 236 µM in assay [2].

As to `Cc1ccc2c(c1)nc1n2[C@@H](CNC(=O)c2cccnc2)COC1`, the IC50 in assay [1] and in assay [2] was over 50.1 µM in each case.

Regarding `COc1ccc(CCN)c(O)c1`, the IC50 in assay [1] is 435 µM; in assay [2] it was 153 µM.

As for `Cc1nc(N2CCCC2)nc2c1CCN(Cc1ccsc1)CC2`, the IC50 was 1.59 µM in assay [1] and 0.893 µM in assay [2].

On to `Cc1ccc(C(C)C)c(OCC(O)CNCCO)c1` (stereo not given), for which the results for the IC50 in assay [1] and in assay [2] were 127 µM and 158 µM, respectively.

Turning to `CC(C)CCNC(=O)Nc1ccc(-n2cccn2)nc1`, the IC50 in assay [1] was 90 µM; in assay [2], 103 µM.

For the compound `COCCN(C)CCNC(=O)c1cc2ccccc2[nH]1`, the IC50 in assay [1] and in assay [2] was over 501 µM throughout.

As for `CCc1ccc(C(=O)NC(C)c2cccnc2)o1` (stereo not given), the IC50 in assay [1] and in assay [2] was over 501 µM throughout.

For `NCC(c1cccs1)N1CCCC1` (stereo not given), the values for the IC50 in assay [1] and in assay [2] were 494 µM and 156 µM, respectively.
